Laboratory results from patent US4056629A, “Pharmacologically active O-acyl-2,3-diaryl-3-halogeno-acryl-aldoximes” (Hoechst Aktiengesellschaft, priority 1975, dated 1977).

Tests used:
[1] = system: gout-like disturbance of the purine metabolism; assay: 3-day cycle in the oxonate rat (uric acid in urine on days 1-3 and in serum on day 3); assay type: in vivo, white male Wistar rats; conditions: for Serum Uric acid conc.: third day, * statistically significant p < 0.05 (Duncan test)
Procedure: (§1) The uricosuric and hypouricemic effects were observed by way of experiment on the oxonate rat. In this experimental test arrangement the uricase activity of the rat liver was inhibited by the administration of potassium oxonate, thus producing a gout-like disturbance of the purine metabolism. The effect was tested in the following test arrangement:
2. The influence on the gout-like metabolism disturbance which had been induced by way of experiment was also examined in a 3-day cycle. For this purpose, the animals (white male Wistar rats) were placed into the metabolism cages 18 hours prior to the start of the experiment. The animals drank water, and they were offered a special fodder mixture to consume ad libitum. The composition of the fodder mixture was as follows: 5 % of fructose, 3% of uric acid, 2 % of potassium oxonate, and 100 mg of synthetic sweetening agent (acesulfame) per 1 kg of body weight. On the first and second days of the experiment, the compositions were administered to the animals, in a 0.5 % potassium-oxanate solution, into the stomach by way of an esophagal sound. The urine samples were examined on the first, second and third days of the experiment, and the serum samples were tested for their uric acid content on the third day of the experiment.
In Table 4 the results following the application of allopurinol (as comparative substance) have been indicated in the above-mentioned experimental scheme.

[2] = system: gout-like disturbance of the purine metabolism; assay: 24-hour test in the oxonate rat (uric acid, urine volume, pH and Na+ after potassium oxonate); assay type: in vivo, male Wistar rats; conditions: for Uric acid serum (-x (mg %) ± SD): control 5.41 + 0.66, * statistically significant (U test); for Activity in words (heading of Table 2): Example 14 combined with the increase of diuresis and the excretion of sodium
Procedure: as §1
1. The influence on the gout-like disturbance of the purine metabolism which had been induced by way of experiment was tested in a 24 hour test. In this test arrangement, the animals are given the substances in a 0.5 % potassium-oxonate solution into the stomach by means of an esophagal sound, after water and fodder had been withheld for 18 hours. During the entire test period, the animals are given the 0.5 % potassium-oxonate solution ad libitum. After 8 hours, they are additionally given 5 ml of water per 100 g of body weight into the stomach, by way of an esophagal sound. After 24 hours urine samples were taken, the animals were killed in a narcosis produced by ether, and the blood and urine were analysed for the content of uric acid. In addition, the creatinine concentration, the sodium, potassium and chloride concentration in the urine and serum samples were determined.

[3] = Table 3, 3 mg/kg, 1st day, oxonate control 3.38
[4] = Table 3, 3 mg/kg, 1st day, oxonate control 42.5
[5] = Table 3, 3 mg/kg, 2nd day, oxonate control 3.83
[6] = Table 3, 3 mg/kg, 2nd day, oxonate control 42.9
[7] = Table 3, 3 mg/kg, 3rd day, oxonate control 5.17
[8] = Table 3, 3 mg/kg, 3rd day, oxonate control 48.8
[9] = Table 3, 3 mg/kg, oxonate control 5.49
[10] = Table 2 II, 0.3 mg/kg, control = 100
[11] = Table 2 II, 3.0 mg/kg, control = 100
[12] = Table 2 I, 3 mg/kg, oxonate control group = 100

Oc1ncnc2[nH]ncc12 [Allo, Allopurinol, reference compound]
Urine Amount of uric acid ([1]; Table 4, 50 mg/kg, 1st day, oxonate control 0.80): 0.91 mg/24 h | Urine Uric acid conc. ([1]; Table 4, 50 mg/kg, 1st day, oxonate control 11.3): 11.6 mg % | Urine Amount of uric acid ([1]; Table 4, 50 mg/kg, 2nd day, oxonate control 2.6): 2.1 mg/24 h | Urine Uric acid conc. ([1]; Table 4, 50 mg/kg, 2nd day, oxonate control 23.9): 18.7 mg % | Urine Amount of uric acid ([1]; Table 4, 50 mg/kg, 3rd day, oxonate control 3.4): 3.8 mg/24 h | Urine Uric acid conc. ([1]; Table 4, 50 mg/kg, 3rd day, oxonate control 36.4): 31.6 mg % | Serum Uric acid conc. ([1]; Table 4, 50 mg/kg, oxonate control 6.7): 6.2 mg % | Urine Amount of uric acid ([1]; Table 4, 100 mg/kg, 1st day, oxonate control 0.80): 0.9 mg/24 h | Urine Uric acid conc. ([1]; Table 4, 100 mg/kg, 1st day, oxonate control 11.3): 12.7 mg % | Urine Amount of uric acid ([1]; Table 4, 100 mg/kg, 2nd day, oxonate control 2.6): 2.0 mg/24 h | Urine Uric acid conc. ([1]; Table 4, 100 mg/kg, 2nd day, oxonate control 23.9): 19.9 mg % | Urine Amount of uric acid ([1]; Table 4, 100 mg/kg, 3rd day, oxonate control 3.4): 3.7 mg/24 h | Urine Uric acid conc. ([1]; Table 4, 100 mg/kg, 3rd day, oxonate control 36.4): 28.2 mg % | Serum Uric acid conc. ([1]; Table 4, 100 mg/kg, oxonate control 6.7): 5.2 mg %

O=C(ON=CC(=C(Br)c1ccccc1)c1ccccc1)c1ccccc1 [Example 5, O-benzoyl-2-phenyl-3-bromo-cinnamic aldoxime]
Urine Amount of uric acid [1, 3]: 2.59 mg/24 h | Urine Uric acid conc. [1, 4]: 38.9 mg % | Urine Amount of uric acid [1, 5]: 2.41 mg/24 h | Urine Uric acid conc. [1, 6]: 32.4 mg % | Urine Amount of uric acid [1, 7]: 3.68 mg/24 h | Urine Uric acid conc. [1, 8]: 34.7 mg % | Serum Uric acid conc. [1, 9]: 4.07 mg %

CC(=O)ON=CC(=C(Br)c1ccccc1)c1ccccc1 [Example 6, O-acetyl-2-phenyl-3-bromo-cinnamic aldoxime]
Urine Amount of uric acid [1, 3]: 2.40 mg/24 h | Urine Uric acid conc. [1, 4]: 33.4 mg % | Urine Amount of uric acid [1, 5]: 2.96 mg/24 h | Urine Uric acid conc. [1, 6]: 32.8 mg % | Urine Amount of uric acid [1, 7]: 2.98 mg/24 h | Urine Uric acid conc. [1, 8]: 32.7 mg % | Serum Uric acid conc. [1, 9]: 3.65 mg %

CCCCCCCCCC(=O)ON=CC(=C(Br)c1ccccc1)c1ccccc1 [Example 7, O-caprinoyl-2-phenyl-3-bromo-cinnamic aldoxime]
Urine Amount of uric acid [1, 3]: 2.78 mg/24 h | Urine Uric acid conc. [1, 4]: 36.4 mg % | Urine Amount of uric acid [1, 5]: 2.99 mg/24 h | Urine Uric acid conc. [1, 6]: 31.8 mg % | Urine Amount of uric acid [1, 7]: 2.74 mg/24 h | Urine Uric acid conc. [1, 8]: 31.2 mg % | Serum Uric acid conc. [1, 9]: 4.03 mg %

CCCCCCCCCC(=O)ON=CC(=C(Cl)c1ccc(OC)cc1)c1ccc(OC)cc1 [Example 8, O-caprinoyl-2-(4-methoxyphenyl)-3-chloro-p-methoxy-cinnamic aldoxime]
Uric acid excretion (-x ± SD) ([2]; Table 2 II, 0.3 mg/kg, control 2.74 + 1.43): 3.25 + 1.68 mg/24 hr./100 g b. wt. | Uric acid serum (-x (mg %) ± SD) ([2]; Table 2 II, 0.3 mg/kg): 5.00 + 0.54 mg % | Uric acid excretion, % control [2, 10]: 118 % control | Uric acid serum, % control [2, 10]: 92 % control | Uric acid excretion (-x ± SD) ([2]; Table 2 II, 3.0 mg/kg, control 2.74 + 1.43): 2.46 + 1.19 mg/24 hr./100 g b. wt. | Uric acid serum (-x (mg %) ± SD) ([2]; Table 2 II, 3.0 mg/kg): 4.81 + 0.74 mg % | Uric acid excretion, % control [2, 11]: 89 % control | Uric acid serum, % control [2, 11]: 88 % control | Activity in words (heading of Table 2) ([2]; oxonate rat): uricosuric and hypouricemic activity

O=C(Nc1ccccc1)ON=CC(=C(Br)c1ccccc1)c1ccccc1 [Example 14, 2-phenyl-3-bromo-cinnamic aldoxime-O-(N-phenyl)-carbamate]
Amount of urine Na+ ([2]; Table 2 I, 3 mg/kg, control 0.09 + 0.03): 0.11 + 0.02 mg/24 hr/100 g b. wt. | Amount of urine excreted (-x + SD) ([2]; Table 2 I, 3 mg/kg, control 7.1 + 2.1): 9.3 + 3.06 ml/24 hr./100 g b. wt. | urine pH ([2]; Table 2 I, 3 mg/kg, control 7.5 + 0.2, * statistically significant (Scheffe test)): 7.2 + 0.08 | Amount of urine excreted, % control [2, 12]: 130 % control | Uric acid excretion, % control [2, 12]: 118 % control | Uric acid excretion (-x ± SD) ([2]; Table 2 I, oxonate rat, 3 mg/kg, into the stomach): 3.52 ± 1.11 mg/24 hr./100 g b. wt. | Activity in words (heading of Table 2) ([2]; oxonate rat): uricosuric activity
